Reference: ChEMBL document CHEMBL1158371, “Design, synthesis, and evaluation of biphenyl-4-yl-acrylohydroxamic acid derivatives as histone deacetylase (HDAC) inhibitors” (Eur J Med Chem, 2009)
Active and inactive are the calls of the source. No cut-off for these calls is given here.

Experiments:
Histone deacetylase 2 = Histone deacetylase 2 (Homo sapiens, UniProt Q92769); assay: Inhibition of HDAC2 in human HeLa cells; type: cell-based
IGROV-1 [1] = assay: Antiproliferative activity against human IGROV1 cells after 72 hrs by cell counting; details: IGROV-1, 72 h
IGROV-1 [2] = assay: Antiproliferative activity against human IGROV1 cells after 72 hrs; type: functional, cell-based; details: IGROV-1, 72 h
IGROV-1 [3] = assay: Induction of apoptosis in human IGROV1 cells at IC80 after 72 hrs by TUNEL assay; type: functional
IGROV-1 [4] = assay: Antiproliferative activity against cisplatin-resistant human IGROV1 cells after 72 hrs; type: functional, cell-based; details: IGROV-1, 72 h
NCI-H460 [5] = assay: Antiproliferative activity against human H460 cells after 72 hrs; type: functional, cell-based; details: NCI-H460, 72 h
NB-4 = assay: Antiproliferative activity against human NB4 cells after 72 hrs; type: functional, cell-based; details: NB-4, 72 h
IGROV-1 [6] = assay: Cell cycle arrest in cisplatin-resistant human IGROV1 cells assessed as partial accumulation at G2/M phase at IC80 using propidium-iodide staining by flow-cytometry; type: functional, cell-based
IGROV-1 [7] = assay: Cell cycle arrest in human IGROV1 cells assessed as accumulation at sub-G1 phase at IC80 after 24 hrs using propidium-iodide staining by flow-cytometry; type: functional, cell-based
IGROV-1 [8] = assay: Cell cycle arrest in cisplatin-resistant human IGROV1 cells assessed as partial accumulation at S phase at IC80 using propidium-iodide staining by flow-cytometry; type: functional, cell-based
HCT-116 [9] = assay: Antiproliferative activity against human HCT116 cells after 72 hrs; type: functional, cell-based; details: HCT-116, 72 h
Mus musculus [10] = assay: Toxicity in athymic nude Swiss mouse bearing human H460 cells assessed as body weight loss at 100 mg/kg, ip QD administered 5 days a week for 2 weeks; type: organism-based; set-up: dose 100 mg/kg, route intraperitoneal; details: in vivo
HCT-116 [11] = assay: Antitumor activity against human HCT116 cells athymic nude Swiss mouse assessed as tumor volume inhibition at 20 mg/kg, po QD administered 5 days a week for 4 weeks; type: functional
IGROV-1 [12] = assay: Antitumor activity against human IGROV1 cells athymic nude Swiss mouse assessed as tumor volume inhibition at 20 mg/kg, po QD administered 5 days a week for 4 weeks; type: functional
Mus musculus [13] = assay: Toxicity in athymic nude Swiss mouse bearing human HCT116 cells assessed as body weight loss at 20 mg/kg, ip QD administered 5 days a week for 4 weeks; type: organism-based, HCT-116; set-up: dose 20 mg/kg, route intraperitoneal; details: in vivo
NCI-H460 [14] = assay: animal or person; type: functional, Homo sapiens; details: Mus musculus, route oral
Description: Antitumor activity against human H460 cells athymic nude Swiss mouse assessed as tumor volume inhibition at 100 mg/kg, po QD administered 5 days a week for 2 weeks

NCI-H460 [15] = assay: Antitumor activity against human H460 cells athymic nude Swiss mouse assessed as tumor volume inhibition at 100 mg/kg, ip QD administered 5 days a week for 2 weeks; type: functional; details: route intraperitoneal
Mus musculus [16] = assay: Toxicity in athymic nude Swiss mouse bearing human HCT116 cells assessed as body weight loss at 20 mg/kg, po QD administered 5 days a week for 4 weeks; type: organism-based, HCT-116; set-up: dose 20 mg/kg, route oral; details: in vivo
Mus musculus [17] = assay: Toxicity in athymic nude Swiss mouse bearing human IGROV1 cells assessed as body weight loss at 20 mg/kg, po QD administered 5 days a week for 4 weeks; type: organism-based, IGROV-1; set-up: dose 20 mg/kg, route oral; details: in vivo
HCT-116 [18] = assay: Antitumor activity against human HCT116 cells athymic nude Swiss mouse assessed as tumor volume inhibition at 20 mg/kg, ip QD administered 5 days a week for 4 weeks; type: functional; details: HCT-116, ip, route intraperitoneal

Histone deacetylase 2, sequence (Q92769 whole entry): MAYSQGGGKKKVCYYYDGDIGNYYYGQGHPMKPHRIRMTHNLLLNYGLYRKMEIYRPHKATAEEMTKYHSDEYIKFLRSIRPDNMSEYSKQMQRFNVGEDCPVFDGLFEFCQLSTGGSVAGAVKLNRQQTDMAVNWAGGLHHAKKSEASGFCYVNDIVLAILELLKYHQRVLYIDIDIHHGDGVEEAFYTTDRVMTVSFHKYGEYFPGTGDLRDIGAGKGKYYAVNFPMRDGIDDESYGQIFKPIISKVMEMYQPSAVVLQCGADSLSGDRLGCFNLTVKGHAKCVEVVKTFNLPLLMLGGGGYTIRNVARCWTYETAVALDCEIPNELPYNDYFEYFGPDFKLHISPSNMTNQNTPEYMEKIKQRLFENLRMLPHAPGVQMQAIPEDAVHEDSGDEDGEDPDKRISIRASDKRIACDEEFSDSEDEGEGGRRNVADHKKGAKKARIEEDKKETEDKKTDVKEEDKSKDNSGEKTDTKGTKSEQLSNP

Row | Compound | IC50 (Histone deacetylase 2) | IC80 (IGROV-1 [1]) | IC50 (IGROV-1 [2]) | Activity (IGROV-1 [3]) | IC50 (IGROV-1 [4]) | IC50 (NCI-H460 [5]) | IC50 (NB-4) | Activity (IGROV-1 [6]) | Activity (IGROV-1 [7]) | Activity (IGROV-1 [8]) | IC50 (HCT-116 [9]) | Activity (Mus musculus [10]) | inhibition in vivo at 20 mg/kg (HCT-116 [11]) | inhibition in vivo at 20 mg/kg (IGROV-1 [12]) | Activity (Mus musculus [13]) | inhibition in vivo at 100 mg/kg (NCI-H460 [14]) | inhibition in vivo at 100 mg/kg (NCI-H460 [15]) | Activity (Mus musculus [16]) | Activity (Mus musculus [17]) | inhibition in vivo at 20 mg/kg (HCT-116 [18])
1 | COc1ccc(-c2ccc(/C=C/C=C/C(=O)NO)cc2)cc1 | > 5000 nM | 10 µM | 570 nM | 90% | 2010 nM | > 20 µM | – | – | – | – | – | – | – | – | – | – | – | – | – | –
2 | O=C(/C=C/c1ccc(-c2ccncc2)cc1)NO | > 5000 nM | – | – | – | – | – | 3290 nM | – | – | – | – | – | – | – | – | – | – | – | – | –
3 | O=C(/C=C/c1ccc(-c2cccs2)cc1)NO | 450 nM | 7 µM | 2800 nM | 90% | 3200 nM | 2.8 µM | – | Active | Active | Active | – | – | – | – | – | – | – | – | – | –
4 | O=C(/C=C/c1ccc(-c2ccc(Cl)cc2)cc1)NO | 1860 nM | 2 µM | 610 nM | 77% | 1360 nM | – | 760 nM | Active | Active | Active | 510 nM | – | – | – | – | – | – | – | – | –
5 | O=C(/C=C/C=C/c1ccc(-c2ccccc2)cc1)NO | > 5000 nM | 3 µM | 1400 nM | 89% | 2400 nM | 1.9 µM | 660 nM | Active | Active | Active | 980 nM | – | – | – | – | – | – | – | – | –
6 | COc1ccc(-c2ccc(/C=C/C(=O)NO)cc2)cc1 | 1160 nM | 3 µM | 750 nM | 52% | 2300 nM | 3.7 µM | – | Active | Active | Active | 220 nM | 4% | 35% | 71% | 2% | 57% | 39% | 1% | 0% | 50%
7 | O=C(CCc1ccc(-c2ccc(O)cc2)cc1)NO | 1700 nM | 10 µM | 800 nM | 45% | 950 nM | 15.2 µM | 3900 nM | Active | Active | Active | 260 nM | – | – | – | – | – | – | – | – | –
8 | O=C(/C=C/Oc1ccc(-c2ccccc2)cc1)NO | – | – | 5400 nM | – | 5900 nM | – | – | – | – | – | 3900 nM | – | – | – | – | – | – | – | – | –
9 | O=C(/C=C/C1CCC(c2ccc(O)cc2)CC1)NO (configuration not stated) | 310 nM | – | 2500 nM | – | 2600 nM | 2.2 µM | 900 nM | – | – | – | 370 nM | – | – | – | – | – | – | – | – | –
10 | O=C(/C=C/c1ccc(-c2ccc(CO)cc2)cc1)NO | 220 nM | 15 µM | 8000 nM | 90% | 5500 nM | 3.8 µM | 1810 nM | Active | Active | Active | 800 nM | – | – | – | – | – | – | – | – | –
11 | N#Cc1ccc(-c2ccc(/C=C/C=C/C(=O)NO)cc2)cc1 | 1200 nM | – | 1050 nM | – | 3100 nM | 3.3 µM | – | – | – | – | – | – | – | – | – | – | – | – | – | –
